Experimental data reported in BindingDB's records for doi:10.3109/14756369909030324 (University of Catania, 1999).
pIC50: −log10 of the molar value.

molecular target: T1, Amine oxidase [flavin-containing] B (Rattus norvegicus, UniProt P19643); experiment: Enzyme Assay; settings: 37 °C
T1 sequence (P19643 whole entry): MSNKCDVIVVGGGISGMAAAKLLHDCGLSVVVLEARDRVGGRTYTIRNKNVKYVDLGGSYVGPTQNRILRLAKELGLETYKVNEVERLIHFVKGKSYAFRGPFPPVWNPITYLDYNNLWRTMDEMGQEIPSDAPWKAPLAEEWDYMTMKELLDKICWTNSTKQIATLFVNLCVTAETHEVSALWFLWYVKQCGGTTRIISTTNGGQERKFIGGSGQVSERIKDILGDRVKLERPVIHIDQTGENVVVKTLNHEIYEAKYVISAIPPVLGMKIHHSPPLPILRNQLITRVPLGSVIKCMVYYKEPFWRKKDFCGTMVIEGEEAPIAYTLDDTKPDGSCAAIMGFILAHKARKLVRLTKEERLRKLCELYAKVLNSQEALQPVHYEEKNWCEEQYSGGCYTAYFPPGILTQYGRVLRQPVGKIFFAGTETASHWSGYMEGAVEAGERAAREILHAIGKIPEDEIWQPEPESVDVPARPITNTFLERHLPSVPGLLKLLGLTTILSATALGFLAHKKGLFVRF
Procedure: MAO-B activity was measured by the spectrofluorimetric method of Morinan and Garratt.

| pIC50 | Structure (SMILES) |
| --- | --- |
| 4.08 | CCN(CC)CCC(=O)c1sc(NC)nc1C [Thiazolyl derivative, 1] |
| 5.12 | CCN(CC)CCC(=O)c1sc(-c2ccc(C)cc2)nc1C [Thiazolyl derivative, 2] |
| 4.37 | Cc1nc(-c2ccccc2)sc1C(=O)CCN1CCCCC1 [Thiazolyl derivative, 3] |
| 5.11 | Cc1nc(-c2ccccc2)sc1C(=O)CCN1CCOCC1 [Thiazolyl derivative, 4] |
| 4.04 | O=C(CN1CCCCC1)Nc1nc(-c2ccccc2)cs1 [Thiazolyl derivative, 9] |
| 3.39 | COc1ccc(-c2csc(NC(=O)CN3CCCCC3)n2)cc1 [Thiazolyl derivative, 10] |
| 3.50 | COc1ccc(-c2csc(NC(=O)CCN3CCCCC3)n2)cc1 [Thiazolyl derivative, 11] |
